These molecules were tested against Diacylglycerol kinase alpha (Homo sapiens, UniProt P23743) (assay: DGKα Biochemical Activity Assay).
Chain of Diacylglycerol kinase alpha (P23743 whole entry): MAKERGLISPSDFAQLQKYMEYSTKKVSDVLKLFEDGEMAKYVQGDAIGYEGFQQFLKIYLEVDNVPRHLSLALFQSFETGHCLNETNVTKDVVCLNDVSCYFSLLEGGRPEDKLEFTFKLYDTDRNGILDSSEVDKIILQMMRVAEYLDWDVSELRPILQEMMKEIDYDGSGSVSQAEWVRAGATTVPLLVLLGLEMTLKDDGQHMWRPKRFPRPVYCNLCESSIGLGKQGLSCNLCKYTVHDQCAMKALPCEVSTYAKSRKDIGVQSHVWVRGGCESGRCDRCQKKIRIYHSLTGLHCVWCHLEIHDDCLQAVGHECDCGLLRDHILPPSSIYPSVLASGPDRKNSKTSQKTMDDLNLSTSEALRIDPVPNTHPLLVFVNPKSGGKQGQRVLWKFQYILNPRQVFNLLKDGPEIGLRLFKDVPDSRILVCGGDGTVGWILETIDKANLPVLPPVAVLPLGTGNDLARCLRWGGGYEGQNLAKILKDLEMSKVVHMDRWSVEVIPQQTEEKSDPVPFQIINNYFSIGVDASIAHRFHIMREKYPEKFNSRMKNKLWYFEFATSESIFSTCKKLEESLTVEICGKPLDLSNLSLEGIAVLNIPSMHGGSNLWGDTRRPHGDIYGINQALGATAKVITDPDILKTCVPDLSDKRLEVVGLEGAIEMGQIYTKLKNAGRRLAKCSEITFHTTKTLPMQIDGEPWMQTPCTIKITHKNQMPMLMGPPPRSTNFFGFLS
Procedure: Ten nanoliters of test compound dissolved in DMSO at various concentrations were dispensed into a 384-well low volume nonbinding service white plates (Corning #3824) using a Labcyte Echo instrument. Recombinant DGKα (Carna Biosciences) in assay buffer (5 μL in 50 mM MOPS [3-(N-morpholino) propanesulfonic acid], pH 7.2; 0.0025% Triton X-100; 1 mM dithiothreitol; 5 mM MgCl2, 200 μM ATP) was added to the compound-containing plate and was incubated for 15 minutes at 25° C. A substrate solution (5 μL in 1.7 mM 1,2-dioleoyl-sn-glycerol [18:1 DAG], 13.5 mM 1-palmitoyl-2-oleoyl-sn-glycero-3-phospho-L-serine [16:0-18:1 PS](POPS), 2 μM CaCl2, 100 mM Octylglucoside (OG), 1 mM DTT) (obtained from Carna Biosciences) diluted in DGK ALPHA assay buffer was then added to start the reaction. Final concentrations were 1 nM DGKα, 100 μM ATP, 1 μM calcium chloride, 0.85 mM 1,2-dioleoyl-sn-glycerol (18:1 DAG), 6.75 mM 1-palmitoyl-2-oleoyl-sn-glycero-3-phospho-L-serine (16:0-18:1 PS) (POPS), 1 μM CaCl2), 50 mM Octylglucoside (OG) and 5 mM MgCl2. The reaction mixture was incubated at 25° C. for 1 hour. ADP-Glo Reagent (10 μL, 10 mM Mg added) provided by the kit was added to each well and incubated at 25° C. for 40 minutes. Then, 20 μL of Kinase Detection Reagent was added and incubated at 25° C. for 40 minutes. Luciferase activity of each well was measured via luminescence on an Envision plate reader (PerkinElmer).
In the case of `CN(C)c1ccc2c(N(C)c3cccc(C#CC(C)(C)C)c3)nc3nncn3c2n1` [US11926628, Example 110], the IC50 is reported as 930 nM.
`Cc1nnc2nc(N3CCCc4c(C#CC5(C(F)(F)F)CC5)cccc43)c3c(F)cncc3n12` [US11926628, Example 41] showed an IC50 of 7.82 nM.
In the case of `CN(c1cccc(C#CC(C)(C)C)c1)c1nc2nncn2c2cnccc12` [US11926628, Example 60], the IC50 is reported as 61.5 nM.
`COc1ccc(-c2cccc(N(C)c3nc4nncn4c4nc(N(C)C)ccc34)c2)cn1` [US11926628, Example 111] was tested, and the IC50 was 375 nM.
In the case of `Cc1nnc2nc(N3CCCCc4c(C#CC(C)(C)C#N)cccc43)c3c(F)cncc3n12` [US11926628, Example 64], the IC50 is reported as 5.79 nM.
Molecule `CCOc1ccc2c(N(C)c3cccc(-c4ccc(C5CC5)cc4)c3)nc3nncn3c2n1` [US11926628, Example 113] has an IC50 of 702 nM.
In the case of `CN(C)c1ccc2c(N(C)c3cccc(-c4ccc(C5CC5)cc4)c3)nc3nncn3c2n1` [US11926628, Example 112], the IC50 is reported as 66.7 nM.

Reference: BindingDB's records for patent US11926628 (Gilead Sciences, 2024)
